Patent US20110105623A1 (Biogenic Innovations, LLC, priority 2009, published 2011)

Assays:
Chlorella sorokiniana = test: Algal growth by percent transmittance at 750 nm; type: cell-based
Method: Two species of Chlorella were examined for growth—Chlorella sorokiniana a freshwater species and Chlorella minutissima a marine species. […] Growth was measured on day 0, 1, 2, 3, 4, 5, 6, 7, 8, 9 and 10. […] The following media were purchased from UTEX Culture Collection of Algae: Enriched Salt Water Medium and Volvox Dextrose Medium.
The algae were grown for 48 hours in the appropriate medium. The initial suspension was enumerated for each alga and is referred to as the starting inoculums. Chlorella sorokiniana was at 381 million cells per milliliter and Chlorella minutissima was at 19 million cells per milliliter. One milliliter of the algal solution was placed into 9 mLs of medium and mixed by vortexing. […] The tube of algae and MSM were incubated at room temperature with exposure to sunlight. […] Each dilution of MSM for each organism was set up in and analyzed in triplicate for each time interval measured. The samples were measured by percent transmittance on a UV/VIS spectrophotometer at wavelength 750 nm. The medium stock was tested for percent transmittance background levels at every time interval were measured. The lower percent transmittance indicated a higher growth factor.

[1] = test system: Streptococcus Pneumonia (#10341); test: Bacterial viability by bioluminescent ATP assay
[2] = test system: MDCK cells (ATCC # CCL-34); test: Cytotoxicity of MSM; type: cell-based, Canis; details: for Test Product Cytotoxicity (CPE): MDCK
Source text: Determination of test product cytotoxicity.
(§1) B. Toxicity Control for Pre-Treatment Test.

[3] = test system: MRC-5 (Human lung fibroblasts) cells; test: Toxicity control for Pre-Treatment test; type: cell-based
Source text: as §1

[4] = test system: Acidophilus plus Bifidus milk microorganisms; test: Growth in Acidophilus plus Bifidus milk fortified with MSM; details: A/B milk […] MSM
Method: Then samples were evaluated every 7 days for a total of 28 days. […] The milks were bought at a local store. The Acidophilus milk was low fat (Darigold). The Acidophilus plus Bifidus milk contained 2% milkfat (Lucerne). […] The working solutions were held at 4° C. during the study.

## Methylsulfonylmethane [MSM]
Chlorella sorokiniana; MSM 5%, Sample Day 9
  Growth, percent transmittance at 750 nm: 13.7%
Chlorella sorokiniana; MSM 5%, Sample Day 10
  Growth, percent transmittance at 750 nm: 12.8%
Chlorella sorokiniana; MSM 10%, Sample Day 0
  Growth, percent transmittance at 750 nm: 31.2%
Chlorella sorokiniana; MSM 10%, Sample Day 1
  Growth, percent transmittance at 750 nm: 31.3%
Chlorella sorokiniana; MSM 10%, Sample Day 2
  Growth, percent transmittance at 750 nm: 29.7%
Chlorella sorokiniana; MSM 10%, Sample Day 3
  Growth, percent transmittance at 750 nm: 28.4%
Chlorella sorokiniana; MSM 10%, Sample Day 4
  Growth, percent transmittance at 750 nm: 29.0%
Chlorella sorokiniana; MSM 10%, Sample Day 5
  Growth, percent transmittance at 750 nm: 28.7%
Chlorella sorokiniana; MSM 10%, Sample Day 6
  Growth, percent transmittance at 750 nm: 27.1%
Chlorella sorokiniana; MSM 10%, Sample Day 7
  Growth, percent transmittance at 750 nm: 27.6%
Chlorella sorokiniana; MSM 10%, Sample Day 8
  Growth, percent transmittance at 750 nm: 27.1%
Chlorella sorokiniana; MSM 10%, Sample Day 9
  Growth, percent transmittance at 750 nm: 76.4%
Chlorella sorokiniana; MSM 10%, Sample Day 10
  Growth, percent transmittance at 750 nm: 93.8%
Chlorella sorokiniana; MSM 20%, Sample Day 0
  Growth, percent transmittance at 750 nm: 19.3%
Chlorella sorokiniana; MSM 20%, Sample Day 1
  Growth, percent transmittance at 750 nm: 21.9%
Chlorella sorokiniana; MSM 20%, Sample Day 2
  Growth, percent transmittance at 750 nm: 24.1%
Chlorella sorokiniana; MSM 20%, Sample Day 3
  Growth, percent transmittance at 750 nm: 28.1%
Chlorella sorokiniana; MSM 20%, Sample Day 4
  Growth, percent transmittance at 750 nm: 31.4%
Chlorella sorokiniana; MSM 20%, Sample Day 5
  Growth, percent transmittance at 750 nm: 33.6%
Chlorella sorokiniana; MSM 20%, Sample Day 6
  Growth, percent transmittance at 750 nm: 36.8%
Chlorella sorokiniana; MSM 20%, Sample Day 7
  Growth, percent transmittance at 750 nm: 40.6%
Chlorella sorokiniana; MSM 20%, Sample Day 8
  Growth, percent transmittance at 750 nm: 40.8%
Chlorella sorokiniana; MSM 20%, Sample Day 9
  Growth, percent transmittance at 750 nm: 84.8%
Chlorella sorokiniana; MSM 20%, Sample Day 10
  Growth, percent transmittance at 750 nm: 96.7%
Chlorella sorokiniana; MSM […], Sample Day 0
  Growth, percent transmittance at 750 nm: 40.6%
Chlorella sorokiniana; MSM […], Sample Day 1
  Growth, percent transmittance at 750 nm: 43.1%
Chlorella sorokiniana; MSM […], Sample Day 2
  Growth, percent transmittance at 750 nm: 44.9%
Chlorella sorokiniana; MSM […], Sample Day 3
  Growth, percent transmittance at 750 nm: 43.8%
Chlorella sorokiniana; MSM […], Sample Day 4
  Growth, percent transmittance at 750 nm: 26.1%
Chlorella sorokiniana; MSM […], Sample Day 5
  Growth, percent transmittance at 750 nm: 10.3%
Chlorella sorokiniana; MSM […], Sample Day 6
  Growth, percent transmittance at 750 nm: 10.9%
Chlorella sorokiniana; MSM […], Sample Day 7
  Growth, percent transmittance at 750 nm: 11.0%
Chlorella sorokiniana; MSM […], Sample Day 8
  Growth, percent transmittance at 750 nm: 11.2%
Chlorella sorokiniana; MSM […], Sample Day 9
  Growth, percent transmittance at 750 nm: 8.4%
Chlorella sorokiniana; MSM […], Sample Day 10
  Growth, percent transmittance at 750 nm: 6.0%
[1]
  IC50: 15.97%
[1]; 5% MSM alone
  reduced viability by: approximately 5%
[2]; 0.5%
  Test Product Cytotoxicity (CPE): 00
[2]; 1%
  Test Product Cytotoxicity (CPE): 00
[2]; 2%
  Test Product Cytotoxicity (CPE): 00
[2]; 3%
  Test Product Cytotoxicity (CPE): 00
[2]; 4%
  Test Product Cytotoxicity (CPE): 00
[2]; 5%
  Test Product Cytotoxicity (CPE): 00
[2]; MSM 6% through 0.5%
  cytotoxic effect: no visible cytotoxic effect
[2]; kills 50% of uninfected cells
  TC50: approximately 7%
[3]; MRC-5, 0.5%
  Test Product Cytotoxicity (CPE): 00
[3]; MRC-5, 1%
  Test Product Cytotoxicity (CPE): 00
[3]; MRC-5, 2%
  Test Product Cytotoxicity (CPE): 00
[3]; MRC-5, 3%
  Test Product Cytotoxicity (CPE): 00
[3]; MRC-5, 4%
  Test Product Cytotoxicity (CPE): 00
[3]; MRC-5, 5%
  Test Product Cytotoxicity (CPE): 00
[3]; MRC-5, 6%
  Test Product Cytotoxicity (CPE): 00
[4]; Day 7
  Log Growth of Lactobacillus acidophilus in Milk fortified with MSM: 10.42 logs
[4]; Day 21
  Log Growth of Lactobacillus acidophilus in Milk fortified with MSM: 5.37 logs
[4]; Day 28
  Log Growth of Lactobacillus acidophilus in Milk fortified with MSM: 3.94 logs
[4]; hour 0
  Log Growth of Lactobacillus acidophilus in Milk fortified with MSM: 6.41 logs
[4]; hour 8
  Log Growth of Lactobacillus acidophilus in Milk fortified with MSM: 8.67 logs
[4]; hour 24
  Log Growth of Lactobacillus acidophilus in Milk fortified with MSM: 9.16 logs
[4]; hour 32
  Log Growth of Lactobacillus acidophilus in Milk fortified with MSM: 8.87 logs
[4]; hour 48
  Log Growth of Lactobacillus acidophilus in Milk fortified with MSM: 8.3 logs
[4]; hour 56
  Log Growth of Lactobacillus acidophilus in Milk fortified with MSM: 8.56 logs
[4]; hour 72
  Log Growth of Lactobacillus acidophilus in Milk fortified with MSM: 8.45 logs
[4]; hour 80
  Log Growth of Lactobacillus acidophilus in Milk fortified with MSM: 9.82 logs
[4]; hour 96
  Log Growth of Lactobacillus acidophilus in Milk fortified with MSM: 8.61 logs
[4]; hour 104
  Log Growth of Lactobacillus acidophilus in Milk fortified with MSM: 8.92 logs
